Values after ≈ are worked out from the molar mass of the structure shown. Like-named read-outs stand apart in the source and are kept apart here.
Legend:
[1] = Animal Study 2 (oral glucose tolerance test); parameters: species or system Crlj:CD1 (ICR) mice; details: Mus musculus, read-out: In vivo studies 300 mg/kg (oral glucose tolerance test, % decrease)
Source text: The results of in vivo oral glucose tolerance test (Example 39), expressed as % decrease, are presented as follows: […]
Animal Study 2 (Oral Glucose Tolerance Test)
Male Crlj:CD1 (ICR) mice were obtained from Charles River Laboratries Japan (Yokohama, Japan). All mice were given a standard diet (Clea Japan, Tokyo, Japan) and tap water ad libitum. All institutional guidelines for animal care and use were applied in this study. Test compounds were suspended in 0.3% carboxymethyl-cellulose sodium salt (CMC-Na; Sigma, St. Louis, Mo.). After fasting for 15-17 hr, the test compound (300 mg/kg) or vehicle (0.3% CMC-Na) was orally administered to 7-week-old ICR mice. Glucose solution (5 g/kg) was orally administered at 30 min after test compound treatment. Blood samples were collected from tail vein using capillary tubes containing EDTA·2K before test compound treatment, and at 0, 0.5, 1, and 2 hr after glucose load. The blood samples were centrifuged at 2,500×g for 5 min and separated plasma was kept on ice and analyzed in the same day. Plasma glucose levels were determined using the glucose C II-test (Wako Pure Chemical Industries, Osaka, Japan).
The sum of plasma glucose levels at 0.5 and 1 hr after glucose load was compared to that of vehicle treatment, and results were presented as percent decrease.

S. aureus Smith = assay: Antibacterial activity (MIC), S. aureus; assay type: cell-based; details: Staphylococcus aureus
Procedure, shortened: (§1)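 MIC, the lowest compound concentration inhibiting bacterial growth in culture medium, determined by dilution method per CLSI M7-A4 guidance; reported in μM.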

[2] = target: T1, recombinant full-length human GSK3β (Homo sapiens, UniProt P49841); assay: Luciferase-coupled cell-free GSK3β kinase assay; assay type: biochemical
T1 construct: recombinant full-length human GSK3β (Upstate); purchased Upstate
T1 sequence (P49841 whole entry): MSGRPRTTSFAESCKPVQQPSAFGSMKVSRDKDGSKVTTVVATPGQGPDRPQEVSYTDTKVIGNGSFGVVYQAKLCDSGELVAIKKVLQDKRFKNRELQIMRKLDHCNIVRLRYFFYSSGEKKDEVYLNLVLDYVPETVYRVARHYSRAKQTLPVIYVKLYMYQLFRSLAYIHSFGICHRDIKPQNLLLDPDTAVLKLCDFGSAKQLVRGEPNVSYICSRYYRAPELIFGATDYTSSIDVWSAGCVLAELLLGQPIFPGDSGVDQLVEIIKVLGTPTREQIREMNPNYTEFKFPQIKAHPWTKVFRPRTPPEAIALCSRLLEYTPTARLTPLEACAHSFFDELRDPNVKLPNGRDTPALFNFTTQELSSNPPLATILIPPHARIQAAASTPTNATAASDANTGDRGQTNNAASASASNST
Procedure, shortened: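 GSK3β, 10-25 ng, was incubated with compound for 1 h at 30° C in MOPS pH 7.0 buffer containing 62.5 μM phospho-glycogen synthase peptide-2 and 5 μM ATP. Remaining ATP was read by KinaseGlo luminescence, and IC50 was fitted from % inhibition relative to maximal inhibition.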

E. coli, ATCC8739 = assay: Antibacterial activity (MIC), E. coli; assay type: cell-based; details: Escherichia coli
Procedure, shortened: as §1

[3] = Animal Study 1 (blood glucose in db/db mice); assay type: in vivo; details: 100 mg/kg orally, 0-6 hr after administration
Protocol: Animal Study 1 Male obese hyperglycemic mice (db/db) and lean mice (C57BL/6J) were obtained from Charles River Laboratories Japan (Yokohama, Japan). All mice were given a standard diet (Clea Japan, Tokyo, Japan) and tap water ad libitum. All institutional guidelines for animal care and use were applied in this study. Test compounds were suspended in 0.3% carboxymethyl-cellulose sodium salt (CMC-Na; Sigma, St. Louis, Mo.). After fasting for 2 hr, the test compounds (100 mg/kg) were administered orally to 7-week-old db/db mice. Vehicle (0.3% CMC-Na) was administered orally to both 7-week-old db/db mice and lean mice. Blood samples were collected from tail vein using capillary tubes containing EDTA·2K at 0, 0.5, 1, 2, 4, and 6 hr after the administration. The blood samples were centrifuged at 2,500×g for 5 min and separated plasma was kept on ice and analyzed in the same day. Plasma glucose levels were determined using the glucose CII-test (Wako Pure Chemical Industries, Osaka, Japan). CHIR99021 is a selective inhibitor of GSK3 enzyme known in the art (see, Ring D B et al., Selective GSK-3 inhibitors potentiate insulin activation of glucose transport and utilization in vitro and in vivo. Diabetes 2003, 52(3): 588-595).

[4] = Table 1, 300 mg/kg oral, ICR mice, plasma glucose 0.5 and 1 hr after glucose load vs vehicle
[5] = Table 1, read-out: Antibacterial MIC (μM) S. aureus Smith
[6] = ATCC8739, Table 1, E. coli ATCC8739, read-out: Antibacterial MIC (μM) E.Coli
[7] = Table 2, 300 mg/kg oral, ICR mice, plasma glucose 0.5 and 1 hr after glucose load vs vehicle
[8] = Table 2, S. aureus Smith, read-out: Antimicrobial MIC [μM] S. aureus
[9] = ATCC8739, Table 2, E. coli ATCC8739, read-out: Antimicrobial MIC [μM] E. Coli

Row | Compound | inhibition in vivo at 300 mg/kg [1, 7] [%] | IC50 ([2]; Table 2) [nM] | other results
1 | Nc1c(F)c(NCCCn2ccnc2)c(F)c2c1c(=O)ccn2CCc1ccccc1 [compound 62] |  |  | inhibition in vivo at 300 mg/kg [1, 4]: 5 to 10%; MIC (S. aureus Smith; [5]): > 50 µM; IC50 ([2]; Table 1): 100 to 500 nM; MIC (E. coli, ATCC8739; [6]): > 50 µM
2 | Nc1c(F)c(NCCNc2ccccn2)cc2c1c(=O)c(C(=O)O)cn2CCc1ccccc1 [Example 119] | < 5 | < 100 | MIC (S. aureus Smith; [8]): 10 to 50 µM (≈ 4.61 to 23.1 µg/mL); MIC (E. coli, ATCC8739; [9]): 10 to 50 µM (≈ 4.61 to 23.1 µg/mL)
3 | C[C@H]1COc2c(NCCOc3ccc(F)cc3)c(F)c(N)c3c(=O)c(C(=O)O)cn1c23 [Example 101] | 10 to 20 | < 100 | 
4 | COc1c(NCCNc2cccc3ccccc23)c(F)c(N)c2c(=O)c(C(=O)O)cn(C3CC3)c12 [compound 70] |  |  | inhibition in vivo at 300 mg/kg [1, 4]: < 5%; MIC (S. aureus Smith; [5]): 0.5 to 10 µM (≈ 0.238 to 4.77 µg/mL); IC50 ([2]; Table 1): < 100 nM; MIC (E. coli, ATCC8739; [6]): > 50 µM
5 | C[C@H]1COc2c(NCCCc3ccccn3)c(F)c(N)c3c(=O)c(C#N)cn1c23 [Example 115] | < 5 | < 100 | 
6 | C[C@H]1COc2c(NCCCn3ccnc3)c(F)c(N)c3c(=O)c(C(N)=O)cn1c23 [Example 107] | 10 to 20 | 100 to 500 | 
7 | C[C@H]1COc2c(NCCNC3=NS(=O)(=O)c4ccccc43)c(F)c(N)c3c(=O)c(C(=O)O)cn1c23 [Example 113] | < 5 | < 100 | 
8 | C[C@H]1COc2c(NCCNc3ccccn3)c(F)c(N)c3c(=O)c(C(=O)O)cn1c23 [compound 18] | 10 to 20 | < 100 | MIC (S. aureus Smith; [8]): 0.5 to 10 µM (≈ 0.207 to 4.13 µg/mL); MIC (E. coli, ATCC8739; [9]): 0.5 to 10 µM (≈ 0.207 to 4.13 µg/mL)
9 | C[C@H]1COc2c(NCCCc3ccc(F)cc3)c(F)c(N)c3c(=O)c(C(=O)O)cn1c23 [compound 72] | > 20 | < 100 | 
10 | C[C@H]1COc2c(NCCCNC(=O)C34CC5CC(CC(C5)C3)C4)c(F)c(N)c3c(=O)c(C(=O)O)cn1c23 [compound 80] | 5 to 10 | < 100 | 
11 | CC1(C)CCOc2c(NCCNc3ccccn3)c(F)c(N)c3c(=O)c(C(=O)O)cn1c23 [Example 139] | > 20 | 100 to 500 | MIC (S. aureus Smith; [8]): > 50 µM; MIC (E. coli, ATCC8739; [9]): > 50 µM
12 | CC1(C)Cn2cc(C(=O)O)c(=O)c3c(N)c(F)c(NCCNc4ccccn4)c(c32)O1 [compound 57] | > 20 | 100 to 500 | MIC (S. aureus Smith; [8]): 10 to 50 µM (≈ 4.27 to 21.4 µg/mL); MIC (E. coli, ATCC8739; [9]): 10 to 50 µM (≈ 4.27 to 21.4 µg/mL)
13 | CCN(CCCNc1c(F)c(N)c2c(=O)c(C(=O)O)cn3c2c1OC[C@@H]3C)c1ccccc1 [compound 76] | > 20 | < 100 | 
14 | CC1(C)COc2c(NCCCn3ccnc3)c(F)c(N)c3c(=O)c(C(=O)O)cn1c23 [compound 33] | > 20 | 100 to 500 | MIC (S. aureus Smith; [8]): > 50 µM; MIC (E. coli, ATCC8739; [9]): > 50 µM
15 | Cc1c[nH]c(-c2cnc(NCCNc3ccc(C#N)cn3)nc2-c2ccc(Cl)cc2Cl)n1 [CHIR99021] |  |  | blood glucose levels (FIG. 1) [3]: drop in blood glucose levels
16 | C[C@H]1COc2c(NCCS(=O)(=O)N3CCCCC3)c(F)c(N)c3c(=O)c(C(=O)O)cn1c23 [Example 112] | < 5 | < 100 | 
17 | C[C@@H]1COc2c(NCCNc3ccccn3)c(F)c(N)c3c(=O)c(C(=O)O)cn1c23 [compound 31] |  | 100 to 500 | inhibition in vivo at 300 mg/kg ([1]; po): > 20%; MIC (S. aureus Smith; read-out: Antimicrobial MIC [μM] S. aureus): 10 to 50 µM (≈ 4.13 to 20.7 µg/mL); MIC (E. coli, ATCC8739; ATCC8739, read-out: Antimicrobial MIC [μM] E. Coli): 10 to 50 µM (≈ 4.13 to 20.7 µg/mL)
18 | C[C@H]1COc2c(NCCCN3CCCc4ccccc43)c(F)c(N)c3c(=O)c(C(=O)O)cn1c23 [compound 67] | 10 to 20 | < 100 | 
19 | C[C@H]1COc2c(NCCNc3ccccn3)c(F)c(N)c3c(=O)c(C(N)=O)cn1c23 [Example 109] | 10 to 20 | < 100 | 
20 | C[C@H]1COc2c(NCCCc3ccccn3)c(F)c(N)c3c(=O)c(C(=O)O)cn1c23 [compound 70] | > 20 | < 100 | 
21 | COc1c(NCCNc2ccccn2)c(F)c(N)c2c(=O)c(C(=O)O)cn(C3CC3)c12 [compound 71] |  |  | inhibition in vivo at 300 mg/kg [1, 4]: 10 to 20%; MIC (S. aureus Smith; [5]): 0.5 to 10 µM (≈ 0.214 to 4.27 µg/mL); IC50 ([2]; Table 1): 100 to 500 nM; MIC (E. coli, ATCC8739; [6]): 0.5 to 10 µM (≈ 0.214 to 4.27 µg/mL)
